Experimental data taken from PubChem BioAssay (NCI).
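96-well plates; 48 h exposure; 5 concentrations. Endpoints by linear interpolation between flanking doses. Not reached: highest tested concentration assigned. GI50: concentration for 50% inhibition of growth. The concentration for full growth arrest is given as TGI.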

Key:
Test in all cases: growth of human tumour cells (NCI), 48 h
HCC-2998 colon = tested on: HCC-2998 colon
MALME-3M melanoma = tested on: MALME-3M melanoma
M14 melanoma = tested on: M14 melanoma
A549 NSCLC = tested on: A549 NSCLC
UACC-62 melanoma = tested on: UACC-62 melanoma
OVCAR-5 ovarian = tested on: OVCAR-5 ovarian
COLO 205 colon = tested on: COLO 205 colon
U251 CNS = tested on: U251 CNS
HCT-116 colon = tested on: HCT-116 colon
HCT-15 colon = tested on: HCT-15 colon
CAKI-1 renal = tested on: CAKI-1 renal
OVCAR-3 ovarian = tested on: OVCAR-3 ovarian
SNB-75 CNS = tested on: SNB-75 CNS
NCI-H522 lung = tested on: NCI-H522 lung
SW-620 colon = tested on: SW-620 colon
IGROV1 ovarian = tested on: IGROV1 ovarian
MCF7 breast = tested on: MCF7 breast
BT-549 breast = tested on: BT-549 breast
OVCAR-4 ovarian = tested on: OVCAR-4 ovarian
SK-OV-3 ovarian = tested on: SK-OV-3 ovarian
SK-MEL-2 melanoma = tested on: SK-MEL-2 melanoma
SR leukemia = tested on: SR leukemia
NCI/ADR-RES ovarian = tested on: NCI/ADR-RES ovarian
MOLT-4 leukemia = tested on: MOLT-4 leukemia
T-47D breast = tested on: T-47D breast
UACC-257 melanoma = tested on: UACC-257 melanoma
SF-268 CNS = tested on: SF-268 CNS
OVCAR-8 ovarian = tested on: OVCAR-8 ovarian
K-562 leukemia = tested on: K-562 leukemia
HOP-62 NSCLC = tested on: HOP-62 NSCLC
MDA-MB-435 = tested on: MDA-MB-435
KM12 colon = tested on: KM12 colon
NCI-H226 lung = tested on: NCI-H226 lung
HS 578T breast = tested on: HS 578T breast
MDA-MB-468 breast = tested on: MDA-MB-468 breast
ACHN renal = tested on: ACHN renal
786-0 renal = tested on: 786-0 renal
SNB-19 CNS = tested on: SNB-19 CNS
SF-295 CNS = tested on: SF-295 CNS
SF-539 CNS = tested on: SF-539 CNS
LOX IMVI melanoma = tested on: LOX IMVI melanoma
RPMI-8226 leukemia = tested on: RPMI-8226 leukemia
NCI-H460 lung = tested on: NCI-H460 lung
UO-31 renal = tested on: UO-31 renal
NCI-H23 lung = tested on: NCI-H23 lung
SK-MEL-28 melanoma = tested on: SK-MEL-28 melanoma
RXF 393 renal = tested on: RXF 393 renal
MDA-MB-231 breast = tested on: MDA-MB-231 breast
PC-3 prostate = tested on: PC-3 prostate
DU-145 prostate = tested on: DU-145 prostate
SN12C renal = tested on: SN12C renal
HT29 colon = tested on: HT29 colon
EKVX NSCLC = tested on: EKVX NSCLC
CCRF-CEM leukemia = tested on: CCRF-CEM leukemia
TK-10 renal = tested on: TK-10 renal
SK-MEL-5 melanoma = tested on: SK-MEL-5 melanoma
HL-60(TB) leukemia = tested on: HL-60(TB) leukemia

N#Cc1cc(-c2ccc3ncnc(N4CCc5cc(F)c(Cl)cc54)c3c2)cnc1N
GI50 (HCC-2998 colon): 2.07 µM
TGI (HCC-2998 colon): > 100 µM
GI50 (MALME-3M melanoma): 2.93 µM
TGI (MALME-3M melanoma): 45.5 µM
GI50 (M14 melanoma): 3.09 µM
TGI (M14 melanoma): > 100 µM
GI50 (A549 NSCLC): 1.88 µM
TGI (A549 NSCLC): > 100 µM
GI50 (UACC-62 melanoma): 3.39 µM
TGI (UACC-62 melanoma): > 100 µM
GI50 (OVCAR-5 ovarian): 5.21 µM
TGI (OVCAR-5 ovarian): > 100 µM
GI50 (COLO 205 colon): 1.9 µM
TGI (COLO 205 colon): > 100 µM
GI50 (U251 CNS): 2.71 µM
TGI (U251 CNS): > 100 µM
GI50 (HCT-116 colon): 2.11 µM
TGI (HCT-116 colon): 10.4 µM
GI50 (HCT-15 colon): 1.68 µM
TGI (HCT-15 colon): > 100 µM
GI50 (CAKI-1 renal): 0.786 µM
TGI (CAKI-1 renal): > 100 µM
GI50 (OVCAR-3 ovarian): 1.47 µM
TGI (OVCAR-3 ovarian): > 100 µM
GI50 (SNB-75 CNS): 0.838 µM
TGI (SNB-75 CNS): > 100 µM
GI50 (NCI-H522 lung): 3.34 µM
TGI (NCI-H522 lung): > 100 µM
GI50 (SW-620 colon): 2.62 µM
TGI (SW-620 colon): > 100 µM
GI50 (IGROV1 ovarian): 0.365 µM
TGI (IGROV1 ovarian): 3.01 µM
GI50 (MCF7 breast): 0.532 µM
TGI (MCF7 breast): 4.05 µM
GI50 (BT-549 breast): 1.23 µM
TGI (BT-549 breast): 32.6 µM
GI50 (OVCAR-4 ovarian): 3.7 µM
TGI (OVCAR-4 ovarian): > 100 µM
GI50 (SK-OV-3 ovarian): 2.92 µM
TGI (SK-OV-3 ovarian): > 100 µM
GI50 (SK-MEL-2 melanoma): 17.1 µM
TGI (SK-MEL-2 melanoma): > 100 µM
GI50 (SR leukemia): 1.01 µM
TGI (SR leukemia): 10 µM
GI50 (NCI/ADR-RES ovarian): 2.41 µM
TGI (NCI/ADR-RES ovarian): > 100 µM
GI50 (MOLT-4 leukemia): 1.63 µM
TGI (MOLT-4 leukemia): 11.4 µM
GI50 (T-47D breast): 1.49 µM
TGI (T-47D breast): > 100 µM
GI50 (UACC-257 melanoma): 4.45 µM
TGI (UACC-257 melanoma): > 100 µM
GI50 (SF-268 CNS): 2.31 µM
TGI (SF-268 CNS): > 100 µM
GI50 (OVCAR-8 ovarian): 2.34 µM
TGI (OVCAR-8 ovarian): > 100 µM
GI50 (K-562 leukemia): 3.23 µM
TGI (K-562 leukemia): > 100 µM
GI50 (HOP-62 NSCLC): 3.75 µM
TGI (HOP-62 NSCLC): > 100 µM
GI50 (MDA-MB-435): 4.15 µM
TGI (MDA-MB-435): 29.8 µM
GI50 (KM12 colon): 15.9 µM
TGI (KM12 colon): > 100 µM
GI50 (NCI-H226 lung): 1.38 µM
TGI (NCI-H226 lung): > 100 µM
GI50 (HS 578T breast): 0.633 µM
TGI (HS 578T breast): 7.71 µM
GI50 (MDA-MB-468 breast): 0.227 µM
TGI (MDA-MB-468 breast): 0.88 µM
GI50 (ACHN renal): 0.85 µM
TGI (ACHN renal): > 100 µM
GI50 (786-0 renal): 0.435 µM
TGI (786-0 renal): 21.9 µM
GI50 (SNB-19 CNS): 3.41 µM
TGI (SNB-19 CNS): > 100 µM
GI50 (SF-295 CNS): 3.23 µM
TGI (SF-295 CNS): > 100 µM
GI50 (SF-539 CNS): 1.87 µM
TGI (SF-539 CNS): > 100 µM
GI50 (LOX IMVI melanoma): 1.6 µM
TGI (LOX IMVI melanoma): 16.9 µM
GI50 (RPMI-8226 leukemia): 0.992 µM
TGI (RPMI-8226 leukemia): > 100 µM
GI50 (NCI-H460 lung): 1.9 µM
TGI (NCI-H460 lung): 6.52 µM
GI50 (UO-31 renal): 0.278 µM
TGI (UO-31 renal): > 100 µM
GI50 (NCI-H23 lung): 3.34 µM
TGI (NCI-H23 lung): > 100 µM
GI50 (SK-MEL-28 melanoma): 2.81 µM
TGI (SK-MEL-28 melanoma): > 100 µM
GI50 (RXF 393 renal): 0.316 µM
TGI (RXF 393 renal): 2.94 µM
GI50 (MDA-MB-231 breast): 2.45 µM
TGI (MDA-MB-231 breast): 9.48 µM
GI50 (PC-3 prostate): 1.75 µM
TGI (PC-3 prostate): > 100 µM
GI50 (DU-145 prostate): 1.49 µM
TGI (DU-145 prostate): > 100 µM
GI50 (SN12C renal): 1.05 µM
TGI (SN12C renal): 11.2 µM
GI50 (HT29 colon): 2.65 µM
TGI (HT29 colon): > 100 µM
GI50 (EKVX NSCLC): 0.94 µM
TGI (EKVX NSCLC): > 100 µM
GI50 (CCRF-CEM leukemia): 0.575 µM
TGI (CCRF-CEM leukemia): > 100 µM
GI50 (TK-10 renal): 0.993 µM
TGI (TK-10 renal): > 100 µM
GI50 (SK-MEL-5 melanoma): 3.03 µM
TGI (SK-MEL-5 melanoma): > 100 µM
GI50 (HL-60(TB) leukemia): 0.422 µM
TGI (HL-60(TB) leukemia): > 100 µM
